# In patent US9867375B2, “Methods of pest control in soybean” (Syngenta Participations AG, priority 2012, dated 2018):
# Test system: Euschistus heros
# Assay: Euschistus heros (Neotropical brown stink bug) contact/feeding activity on sprayed soybean plants
# Assay type: in vivo
# Conditions: Euschistus heros, 120 h, 50 ppm; sprayed 2 week old soybean plants, 10 N-2 nymphs; evaluation 5 days after infestation on mortality and growth effects
# Description: Euschistus heros (Neotropical brown stink bug) (contact/feeding activity) 2 week old soybean plants are sprayed in a turn table spray chamber with the diluted spray solutions. After drying, 2 soybean seeds are added and plants are infested with 10 N-2 nymphs of the neotropical brown stink bug Euschistus heros in plastic test boxes. Boxes are incubated in a climate chamber at 25° C. and 60% RH. Evaluation is done 5 days after infestation on mortality and growth effects.
row,Compound,pest or weed control at 50 ppm [%]
1,CC(C)C(=O)NCc1ccc(C2=NOC(c3cc(Cl)cc(Cl)c3)(C(F)(F)F)C2)cc1Cl (stereo not drawn) [Compound A2],≥ 50
2,"CC(=O)NCc1ccc(N2CCC(c3cc(Cl)cc(Cl)c3)(C(F)(F)F)C2)cc1C (stereo not drawn) [Compound A4, N-{4-[3-(3,5-dichlorophenyl)-3-(trifluoromethyl)pyrrolidin1-yl]-2-methyl-benzyl)acetamide]",≥ 50
3,"CC(=O)NCc1ccc(C2=NCC(c3cc(Cl)cc(Cl)c3)(C(F)(F)F)C2)cc1Br (stereo not drawn) [Compound A5, N-{2-bromo-4-[4-(3,5-dichlorophenyl)-4-trifluoromethyl-4,5-dihydro-3H-pyrrol-2yl]-benzyl}acetamide]",≥ 50

# Same assay, conditions: low application rates; sprayed soybean plants, N-2 nymphs
row,Compound,control at low application rates
1,"N#Cc1cc(C2=NCC(c3cc(Cl)c(Cl)c(Cl)c3)(C(F)(F)F)C2)ccc1-n1cncn1 (stereo not drawn) [Compound C2, 2-(1,2,4-triazol-1-yl)-5-[3-(3,4,5-trichlorophenyl)-3-(trifluoromethyl)-2,4-dihydropyrrol-5-yl]benzonitrile]",excellent control
2,N#Cc1cc(C2=NOC(c3cc(Cl)c(F)c(Cl)c3)(C(F)(F)F)C2)ccc1-n1cncn1 (stereo not drawn) [Compound C3],excellent control
3,N#Cc1cnn(-c2ccc(C3=NOC(c4cc(Cl)c(F)c(Cl)c4)(C(F)(F)F)C3)cc2C#N)c1 (stereo not drawn) [Compound D1],excellent control
